Laboratory results: PubChem BioAssay AID2060483 (Molecular Pharmacology Branch, DTP, NCI, 2025)

System: K24384-001-R-PDC complex spheroids, viability
Test: Anticancer human tumor K24384-001-R-PDC patient-derived pancreatic adenocarcinoma cell line growth inhibition [GQUAD]
Conditions: for IC50: curve of first compound; for viability, T/C: stronger effect = lower value
Outline: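 Viability of tumor cells grown as complex spheroids with endothelial and stromal cells, exposed to drug combinations. Top concentration at or near clinical Cmax (else 10 microM), diluted in half-log increments.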

[1] = second compound 0.0316 µM, first compound 0.0316 µM
[2] = second compound 0.0316 µM, first compound 0.1 µM
[3] = second compound 0.0316 µM, first compound 0.316 µM
[4] = second compound 0.0316 µM, first compound 1 µM
[5] = second compound 0.0316 µM, first compound 3.16 µM
[6] = second compound 0.0316 µM, first compound 10 µM
[7] = second compound 0.1 µM, first compound 0.0316 µM
[8] = second compound 0.1 µM, first compound 0.1 µM
[9] = second compound 0.1 µM, first compound 0.316 µM
[10] = second compound 0.1 µM, first compound 1 µM
[11] = second compound 0.1 µM, first compound 3.16 µM
[12] = second compound 0.1 µM, first compound 10 µM
[13] = second compound 0.316 µM, first compound 0.0316 µM
[14] = second compound 0.316 µM, first compound 0.1 µM
[15] = second compound 0.316 µM, first compound 0.316 µM
[16] = second compound 0.316 µM, first compound 1 µM
[17] = second compound 0.316 µM, first compound 3.16 µM
[18] = second compound 0.316 µM, first compound 10 µM
[19] = second compound 1 µM, first compound 0.0316 µM
[20] = second compound 1 µM, first compound 0.1 µM
[21] = second compound 1 µM, first compound 0.316 µM
[22] = second compound 1 µM, first compound 1 µM
[23] = second compound 1 µM, first compound 3.16 µM
[24] = second compound 1 µM, first compound 10 µM
[25] = second compound 3.16 µM, first compound 0.0316 µM
[26] = second compound 3.16 µM, first compound 0.1 µM
[27] = second compound 3.16 µM, first compound 0.316 µM
[28] = second compound 3.16 µM, first compound 1 µM
[29] = second compound 3.16 µM, first compound 3.16 µM
[30] = second compound 3.16 µM, first compound 10 µM
[31] = second compound 10 µM, first compound 0.0316 µM
[32] = second compound 10 µM, first compound 0.1 µM
[33] = second compound 10 µM, first compound 0.316 µM
[34] = second compound 10 µM, first compound 1 µM
[35] = second compound 10 µM, first compound 3.16 µM
[36] = second compound 10 µM, first compound 10 µM
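Further: spheroids exposed to compounds for seven days.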

COc1cccc2c1C(=O)c1c(O)c3c(c(O)c1C2=O)CC(O)(C(=O)CO)CC3OC1CC(N)C(O)C(C)O1 (stereo unspecified) + CN(C)c1ccc(Nc2c3ccc(NC(=O)CCN4CCCC4)cc3nc3cc(NC(=O)CCN4CCCC4)ccc23)cc1
IC50 (second compound 0.0316 µM): 215 nM
IC50 (second compound 0.1 µM): 183 nM
IC50 (second compound 0.316 µM): 120 nM
IC50 (second compound 1 µM): 148 nM
IC50 (second compound 3.16 µM): 169 nM
IC50 (second compound 10 µM): 244 nM
viability, T/C [1]: 94.6%
viability, T/C [2]: 57.3%
viability, T/C [3]: 54.4%
viability, T/C [4]: 18.4%
viability, T/C [5]: 4.88%
viability, T/C [6]: 3.9%
viability, T/C [7]: 92.5%
viability, T/C [8]: 63.3%
viability, T/C [9]: 38.2%
viability, T/C [10]: 19.1%
viability, T/C [11]: 5.65%
viability, T/C [12]: 3.5%
viability, T/C [13]: 79.4%
viability, T/C [14]: 51.2%
viability, T/C [15]: 35.3%
viability, T/C [16]: 20.8%
viability, T/C [17]: 6.33%
viability, T/C [18]: 4.16%
viability, T/C [19]: 90.7%
viability, T/C [20]: 53.8%
viability, T/C [21]: 39.3%
viability, T/C [22]: 20.4%
viability, T/C [23]: 5.66%
viability, T/C [24]: 4.15%
viability, T/C [25]: 83.2%
viability, T/C [26]: 56.4%
viability, T/C [27]: 39.2%
viability, T/C [28]: 29.3%
viability, T/C [29]: 5.72%
viability, T/C [30]: 5.1%
viability, T/C [31]: 80.9%
viability, T/C [32]: 101%
viability, T/C [33]: 38%
viability, T/C [34]: 35%
viability, T/C [35]: 9.76%
viability, T/C [36]: 2.73%

Nc1ccn(C2OC(CO)C(O)C2(F)F)c(=O)n1 (stereo unspecified) + CN(C)c1ccc(Nc2c3ccc(NC(=O)CCN4CCCC4)cc3nc3cc(NC(=O)CCN4CCCC4)ccc23)cc1
IC50 (second compound 0.0316 µM): 238 nM
IC50 (second compound 0.1 µM): 157 nM
IC50 (second compound 0.316 µM): 152 nM
IC50 (second compound 1 µM): 111 nM
IC50 (second compound 3.16 µM): 144 nM
IC50 (second compound 10 µM): 118 nM
viability, T/C [1]: 73.4%
viability, T/C [2]: 66.5%
viability, T/C [3]: 40.9%
viability, T/C [4]: 35.9%
viability, T/C [5]: 23.1%
viability, T/C [6]: 21.4%
viability, T/C [7]: 78.1%
viability, T/C [8]: 57.2%
viability, T/C [9]: 38.2%
viability, T/C [10]: 30.8%
viability, T/C [11]: 19.8%
viability, T/C [12]: 19.8%
viability, T/C [13]: 68.1%
viability, T/C [14]: 56.6%
viability, T/C [15]: 38.7%
viability, T/C [16]: 30.3%
viability, T/C [17]: 20.6%
viability, T/C [18]: 17.2%
viability, T/C [19]: 71.9%
viability, T/C [20]: 49.9%
viability, T/C [21]: 39.2%
viability, T/C [22]: 24.4%
viability, T/C [23]: 19.9%
viability, T/C [24]: 16.8%
viability, T/C [25]: 76.5%
viability, T/C [26]: 57.6%
viability, T/C [27]: 33.7%
viability, T/C [28]: 23.3%
viability, T/C [29]: 18.6%
viability, T/C [30]: 15.6%
viability, T/C [31]: 63.6%
viability, T/C [32]: 54.1%
viability, T/C [33]: 32.8%
viability, T/C [34]: 27.9%
viability, T/C [35]: 18.3%
viability, T/C [36]: 18.2%

O=c1[nH]cc(F)c(=O)[nH]1 + CN(C)c1ccc(Nc2c3ccc(NC(=O)CCN4CCCC4)cc3nc3cc(NC(=O)CCN4CCCC4)ccc23)cc1
IC50 (second compound 0.0316 µM): 2200 nM
IC50 (second compound 0.1 µM): 1570 nM
IC50 (second compound 0.316 µM): 1650 nM
IC50 (second compound 1 µM): 1260 nM
IC50 (second compound 3.16 µM): 1360 nM
IC50 (second compound 10 µM): 1750 nM
viability, T/C [1]: 111%
viability, T/C [2]: 71.7%
viability, T/C [3]: 88.4%
viability, T/C [4]: 52.4%
viability, T/C [5]: 42.5%
viability, T/C [6]: 40.3%
viability, T/C [7]: 98.7%
viability, T/C [8]: 100%
viability, T/C [9]: 66.5%
viability, T/C [10]: 59.2%
viability, T/C [11]: 42.7%
viability, T/C [12]: 33.3%
viability, T/C [13]: 94.8%
viability, T/C [14]: 94.8%
viability, T/C [15]: 72.6%
viability, T/C [16]: 59.1%
viability, T/C [17]: 40.4%
viability, T/C [18]: 32.5%
viability, T/C [19]: 90.2%
viability, T/C [20]: 88.8%
viability, T/C [21]: 72.4%
viability, T/C [22]: 57.5%
viability, T/C [23]: 31.3%
viability, T/C [24]: 32.1%
viability, T/C [25]: 83.9%
viability, T/C [26]: 89.5%
viability, T/C [27]: 65.9%
viability, T/C [28]: 57.3%
viability, T/C [29]: 37.6%
viability, T/C [30]: 31.5%
viability, T/C [31]: 83.4%
viability, T/C [32]: 85.2%
viability, T/C [33]: 62.2%
viability, T/C [34]: 69%
viability, T/C [35]: 34.1%
viability, T/C [36]: 31.7%
